Experimental data from patent US8697658B2, “Glycoside compounds” (National Health Research Institutes, priority 2011, dated 2014).

Legend:
[1] = system: Streptozotocin-induced diabetes rats; test: In vivo anti-hyperglycemia assay; parameters: species or system rat; settings: streptozotocin-induced diabetic rats, single oral dose, blood glucose at 0-5 hr, various dosages
Procedure: Streptozotocin-induced diabetes rats were used for assessment of blood glucose lowering effect. Adult male Sprague Dawley rats were obtained from BioLasco, Ilan, Taiwan. The rats received an intraperitoneal injection of streptozotocin (Sigma, Cat. No. S0130, St. Louis, Mo., USA) at a concentration of 65 mg/kg every other day. The streptozotocin solution was freshly prepared in 0.01 M citrate buffer. Blood samples were collected via tail vein with a 25 G needle once a week and were tested using a blood glucometer (ACCU-CHEK® from Roche, Basel, Schweiz) for glucose level. A glucose level of higher than 450 mg/dL indicates streptozotocin-induced diabetes. The diabetic rats were divided into 3-6 groups and were orally administered with a single dose of the tested compounds, dapagliflozin (reference compound), or vehicle. Blood samples were collected via tail vein at 0 (pre-dose), 0.5, 1, 2, 3, 4, and 5 hr after the oral administration and were measured for blood glucose levels with the glucometer. A P value of less than 0.05 was considered statistically significant.

[2] = system: Male Sprague-Dawley rats; test: In vivo urine glucose excretion assay; parameters: species or system rat; settings: single oral dose 0.1, 1, 10, and 50 mg/kg, then 50% glucose solution 2 g/kg orally, 24-hour urine collection
Procedure: Male Sprague-Dawley rats were used for glucosuria assessment. Male Sprague-Dawley rats of 8-10 weeks old were obtained from BioLasco, Ilan, Taiwan. The rats to be tested were fasted overnight and divided into 6 weight-matched groups. The rats were mildly anesthetized with a mixed gas of 30% O2 and 70% CO2 by inhalation and were orally gavaged with a single dose of the tested compounds (0.1, 1, 10, and 50 mg/kg), dapagliflozin (reference compound, 1 mg/kg), or vehicle. Each of the tested rats was subsequently dosed orally with 50% glucose solution (2 g/kg). The rats were returned to metabolism cages (ISHIHALA, Tokyo, Japan) for 24-hour urine collection and were re-fed at 1 h after the glucose challenge. Volume of the urine was measured and recorded. The urine samples were measured for glucose levels by a DRI-CHEM 3500 analyzer (FUJI, Tokyo, Japan). A P value of less than 0.05 was considered statistically significant.

Structure (SMILES)	anti-hyperglycemia effect (blood glucose lowering) [1]	effect in increasing urinary glucose excretion [2]
CCOc1ccc(Cc2cc([C@@H]3O[C@H](C=NO)[C@@H](O)[C@H](O)[C@H]3O)ccc2Cl)cc1 [Compound 70]	strong anti-hyperglycemia effect	strong effect in increasing urinary glucose excretion in a dose-dependent manner
CCOc1ccc(Cc2cc([C@@H]3O[C@H](C=NOC)[C@@H](O)[C@H](O)[C@H]3O)ccc2Cl)cc1 [Compound 71]	–	strong effect in increasing urinary glucose excretion in a dose-dependent manner
CCOc1ccc(Cc2cc([C@@H]3O[C@H](C=NNCCO)[C@@H](O)[C@H](O)[C@H]3O)ccc2Cl)cc1 [Compound 78]	strong anti-hyperglycemia effect	strong effect in increasing urinary glucose excretion in a dose-dependent manner
CCOc1ccc(Cc2cc([C@@H]3O[C@H](CNOC)[C@@H](O)[C@H](O)[C@H]3O)ccc2Cl)cc1 [Compound 79]	–	strong effect in increasing urinary glucose excretion in a dose-dependent manner
CCOc1ccc(Cc2cc([C@@H]3O[C@H](C=NNC(=O)c4cccs4)[C@@H](O)[C@H](O)[C@H]3O)ccc2Cl)cc1 [Compound 81]	–	strong effect in increasing urinary glucose excretion in a dose-dependent manner
CCOc1ccc(Cc2cc([C@@H]3O[C@H](C=NNC(=S)NC)[C@@H](O)[C@H](O)[C@H]3O)ccc2Cl)cc1 [Compound 87]	strong anti-hyperglycemia effect	strong effect in increasing urinary glucose excretion in a dose-dependent manner
CCOc1ccc(Cc2cc([C@@H]3O[C@H](C=NNC(=O)c4ccccc4)[C@@H](O)[C@H](O)[C@H]3O)ccc2Cl)cc1 [Compound 93]	strong anti-hyperglycemia effect	strong effect in increasing urinary glucose excretion in a dose-dependent manner
CCOc1ccc(Cc2cc([C@@H]3O[C@H](C=NNC(=O)c4ccc(Cl)s4)[C@@H](O)[C@H](O)[C@H]3O)ccc2Cl)cc1 [Compound 95]	strong anti-hyperglycemia effect	strong effect in increasing urinary glucose excretion in a dose-dependent manner
O[C@@H]1[C@@H](O)[C@H](c2cn(Cc3ccc(C4CC4)cc3)c3c(F)cccc23)OC[C@H]1O [Compound 108]	strong anti-hyperglycemia effect	–
